Laboratory results: patent US20160368895A1, “PULMONARY HYPERTENSION TREATING AGENT” (THE UNIVERSITY OF TOKYO, priority 2013, published 2016)

Tests used:
[1] = biological target: T1, human PGI2 receptors (hIP) (Homo sapiens, UniProt P43119); experiment: Method C: effect on epoprostenol-cAMP production curve in CHO/hIP cells (left shift value); assay type: cell-based
T1 construct: expressed in transfected cells; host or cells: CHO-K1
Experimental: The effect of a test compound on the cAMP production curve with respect to the IP agonist epoprostenol (manufactured by GlaxoSmithKline) was investigated using CHO-K1 cells (CHO/hIP cells) in which human PGI2 receptors (hIP) are stably expressed.
(§1) An amount of 5 μL of a mixture (diluted in F-12 culture medium (manufactured by GIBCO) including 0.1% BSA) of epoprostenol dissolved in DMSO and a test compound dissolved in DMSO was dispensed in advance into a 384-well black microplate, and 5 μL of CHO/hIP cells suspended at a concentration of 1.4×10^6 cells/mL in F-12 culture medium including 0.1% BSA were added to the microplate. After 40 minutes of incubation at room temperature, the amount of cAMP was measured using a cAMP assay kit (cAMP HiRange, manufactured by Cisbio Bioassays). Specifically, 5 μL of a cAMP-d2 solution (including a cell lysate) from the kit were added and the reaction was stopped, then 5 μL of a fluorescence-labeled cAMP antibody solution from the kit were added and incubation was performed for 1 hour at room temperature, after which fluorescence was measured using a PHERAstar plate reader (manufactured by BMG) in HTRF (registered trademark) mode. The amount of cAMP in each well was calculated from a cAMP calibration curve obtained using a standard sample, and an epoprostenol-cAMP production curve for the presence of various concentrations of the test compound was created.

[2] = biological target: T1, human PGI2 receptors (hIP); experiment: Method B: positive allosteric modulator activity, cAMP in CHO/hIP cells with 1 nM epoprostenol; assay type: cell-based; details: cAMP relative to 1 nM epoprostenol alone
Experimental: The positive allosteric modulator activity of a test compound was measured as a change in the amount of intracellular cyclic AMP (cAMP) in the presence of 1 nM of the IP agonist epoprostenol (manufactured by GlaxoSmithKline), using CHO-K1 cells (CHO/hIP cells) in which human PGI2 receptors (hIP) are stably expressed.
as §1, with “and” for “and an epoprostenol-cAMP production curve for”, “activity” for “presence”, “each” for “various concentrations of the”, “is noted below as a ratio T/C (%) based on the amount of cAMP for 1 nM of epoprostenol alone.” for “was created.”

[3] = Table 4, concentration of test compound that halves the EC50 of epoprostenol
[4] = Table 5, concentration of test compound that halves the EC50 of epoprostenol

T1 sequence (P43119 whole entry): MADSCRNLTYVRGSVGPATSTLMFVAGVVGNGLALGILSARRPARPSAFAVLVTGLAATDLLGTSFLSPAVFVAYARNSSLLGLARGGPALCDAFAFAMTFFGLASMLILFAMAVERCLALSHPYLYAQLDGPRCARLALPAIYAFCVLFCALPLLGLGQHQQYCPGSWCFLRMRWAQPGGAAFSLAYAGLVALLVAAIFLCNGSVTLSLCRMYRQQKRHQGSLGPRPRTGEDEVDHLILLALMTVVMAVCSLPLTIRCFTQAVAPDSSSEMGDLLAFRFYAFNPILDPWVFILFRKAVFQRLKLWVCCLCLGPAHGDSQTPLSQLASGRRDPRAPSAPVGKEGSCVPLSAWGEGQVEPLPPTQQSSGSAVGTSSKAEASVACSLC

Row | SMILES | left shift value [1, 3] | T/C ([2]; test concentration 10 uM) | T/C ([2]; test concentration 5 uM) | left shift value [1, 4]
1 | CC(C)(C)n1nnnc1C(c1ccccc1OCc1ccccc1)N1CCc2ccccc2C1 (stereo not shown) [Example 1, 2-((2-(benzyloxy)phenyl)(1-tert-butyl-1H-tetrazol-5-yl)methyl)-1,2,3,4-tetrahydroisoquinoline] | 24.9 µM | 151.7% | – | –
2 | CC(C)(C)n1nnnc1C(c1ccccc1Br)N1CCc2ccccc2C1 (stereo not shown) [Example 2] | 15.5 µM | 152.5% | – | –
3 | Cc1ccc(C(c2nnnn2C(C)(C)C)N2CCc3ccccc3C2)cc1 (stereo not shown) [Example 3] | 71.4 µM | – | 100.6% | –
4 | CC(C)(C)n1nnnc1C(c1ccc(Br)cc1)N1CCc2ccccc2C1 (stereo not shown) [Example 4] | 35.7 µM | – | 100.1% | –
5 | CC(C)(C)n1nnnc1C(c1ccc(O)cc1)N1CCc2ccccc2C1 (stereo not shown) [Example 5] | 10.9 µM | 156.4% | – | –
6 | CC(C)(C)n1nncc1C(c1ccc(C(F)(F)F)cc1)N1CCc2ccccc2C1 (stereo not shown) [Example 6] | – | 93.7% | – | –
7 | CC(C)(C)n1nnnc1C1c2ccc(F)cc2SC2Cc3ccccc3CN21 (stereo not shown) [Example 7] | 24.1 µM | 127.6% | – | –
8 | COc1ccc(C(c2nnnn2C(C)(C)C)N2CCc3ccccc3C2)c(F)c1 (stereo not shown) [Example 8] | 7.2 µM | 184.2% | – | –
9 | Cc1ccc(C(c2nnnn2C(C)(C)C)N2CCc3ccccc3C2)cc1 (stereo not shown) [Example 9] | 13.4 µM | 153.2% | – | –
10 | CC(C)(C)n1nnnc1C(c1ccc(Cl)cc1)N1CCc2ccccc2C1 (stereo not shown) [Example 10] | 110.9 µM | 117.0% | – | –
11 | Cc1ccccc1C(c1nnnn1C(C)(C)C)N1CCc2ccccc2C1 (stereo not shown) [Example 11] | – | 95% | – | –
12 | COc1ccc(C(c2nnnn2C(C)(C)C)N2CCc3ccccc3C2)c(OC)c1 (stereo not shown) [Example 12] | 10.4 µM | 155.2% | – | –
13 | CSc1ccccc1C(c1nnnn1C(C)(C)C)N1CCc2ccccc2C1 (stereo not shown) [Example 13] | 3.1 µM | 218.3% | – | –
14 | COc1ncccc1C(c1nnnn1C(C)(C)C)N1CCc2ccccc2C1 (stereo not shown) [Example 14] | 17.7 µM | 132.1% | – | –
15 | COc1cccc(C(c2nnnn2C(C)(C)C)N2CCc3ccccc3C2)c1 (stereo not shown) [Example 15] | 32.4 µM | 122.4% | – | –
16 | CC(C)(C)n1nnnc1C(c1ccccc1F)N1CCc2ccc(Cl)cc2C1 (stereo not shown) [Example 16] | 232.2 µM | 104.6% | – | –
17 | CC(C)(C)n1nnnc1C(c1ccccc1Br)N1CCc2ccc(Cl)cc2C1 (stereo not shown) [Example 17] | – | – | 87% | –
18 | CC(C)(C)n1nnnc1C(c1ccccc1N=O)N1CCc2ccc(Cl)cc2C1 (stereo not shown) [Example 18] | – | 94.1% | – | –
19 | Cc1ccccc1C(c1nnnn1C(C)(C)C)N1CCc2ccc(Cl)cc2C1 (stereo not shown) [Example 19] | – | – | 90% | –
20 | COc1ccccc1C(c1nnnn1C1C2CC3CC(C2)CC1C3)N1CCc2ccccc2C1 (stereo not shown) [Example 20] | 11.1 µM | – | 126.3% | –

Now from value to compound:

Row | left shift value [1, 3] | T/C ([2]; test concentration 10 uM) | T/C ([2]; test concentration 5 uM) | left shift value [1, 4] | SMILES
21 | 2.0 µM | 229.7% | – | – | COc1ccccc1C(c1nnnn1C1(C)CCCCC1)N1CCc2ccccc2C1 (stereo not shown) [Example 21]
22 | 8.3 µM | 149.6% | – | – | COc1ccccc1C(c1nnnn1C1(C)CCCC1)N1CCc2ccccc2C1 (stereo not shown) [Example 22]
23 | 119.6 µM | 106.4% | – | – | COc1cc2ccccc2cc1C(c1nnnn1C(C)(C)C)N1CCc2ccccc2C1 (stereo not shown) [Example 23]
24 | – | 89.3% | – | – | CC(C)(C)n1nnnc1C(c1cc2ccccc2[nH]1)N1CCc2ccccc2C1 (stereo not shown) [Example 40]
25 | – | – | 116.3% | – | CC1(n2nnnc2C(c2ccccc2)N2CCc3ccccc3C2)CCCCC1 (stereo not shown) [Example 41]
26 | – | 72.3% | – | – | COc1ccccc1C(C)(c1nnnn1C(C)(C)C)N1CCc2ccccc2C1 (stereo not shown) [Example 48]
27 | – | 104.7% | – | – | CC(C)(C)n1nnnc1C(c1cc2ccccc2s1)N1CCc2ccccc2C1 (stereo not shown) [Example 49]
28 | – | 105.0% | – | – | CC(C)(C)n1nnnc1C(c1cc2ccccc2o1)N1CCc2ccccc2C1 (stereo not shown) [Example 50]
29 | – | – | – | 34.9 µM | COc1ccc(C(c2nnnn2C(C)(C)C)N2CCc3sccc3C2)cc1 (stereo not shown) [Example 63, 5-((1-(tert-butyl)-1H-tetrazol-5-yl)(4-methoxyphenyl)methyl)-4,5,6,7-tetrahydrothieno[3,2-c]pyridine]
30 | – | – | – | 66.2 µM | CC(C)(C)n1nnnc1C(c1ccccc1Br)N1CCc2sccc2C1 (stereo not shown) [Example 65, 5-((2-bromophenyl)(1-(tert-butyl)-1H-tetrazol-5-yl)methyl)-4,5,6,7-tetrahydrothieno[3,2-c]pyridine]
31 | – | – | – | 84.5 µM | CC(C)(C)n1nnnc1C(c1ccc[nH]1)N1CCc2sccc2C1 (stereo not shown) [Example 66, 5-((1-(tert-butyl)-1H-tetrazol-5-yl)(1H-pyrrol-2-yl)methyl)-4,5,6,7-tetrahydrothieno[3,2-c]pyridine]
32 | – | – | – | 15.5 µM | CC(C)(C)n1nnnc1C(c1ccsc1)N1CCc2sccc2C1 (stereo not shown) [Example 68, 5-((1-(tert-butyl)-1H-tetrazol-5-yl)(thiophen-3-yl)methyl)-4,5,6,7-tetrahydrothieno[3,2-c]pyridine]
33 | – | – | – | 20.6 µM | CC(C)(C)n1nnnc1C(c1ccccc1F)N1CCc2sccc2C1 (stereo not shown) [Example 69, 5-((1-(tert-butyl)-1H-tetrazol-5-yl)(2-fluorophenyl)methyl)-4,5,6,7-tetrahydrothieno[3,2-c]pyridine]
34 | – | – | – | 14.8 µM | CSc1ccccc1C(c1nnnn1C(C)(C)C)N1CCc2sccc2C1 (stereo not shown) [Example 70, 5-((1-(tert-butyl)-1H-tetrazol-5-yl)(2-(methylthio)phenyl)methyl)-4,5,6,7-tetrahydrothieno[3,2-c]pyridine]
35 | – | – | – | 2.3 µM | CC1(n2nnnc2C(c2ccccc2O)N2CCc3ccccc3C2)CCCCC1 (stereo not shown) [Example 71, 2-((3,4-dihydroisoquinolin-2(1H)-yl)-(1-(1-methylcyclohexyl)-1H-tetrazol-5-yl)methyl)phenol]
36 | – | – | – | 3.2 µM | COc1ccsc1C(c1nnnn1C(C)(C)C)N1CCc2sccc2C1 (stereo not shown) [Example 72, 5-((1-(tert-butyl)-1H-tetrazol-5-yl)(3-methoxythiophen-2-yl)methyl)-4,5,6,7-tetrahydrothieno[3,2-c]pyridine]
37 | – | – | – | 44.6 µM | CC(C)(C)n1nnnc1C(c1nccs1)N1CCc2ccccc2C1 (stereo not shown) [Example 73, 2-((1-(tert-butyl)-1H-tetrazol-5-yl)(3,4-dihydroisoquinolin-2(1H)-yl)methyl)thiazole]
38 | – | – | – | 8.6 µM | CC1(n2nnnc2C(c2cccs2)N2CCc3sccc3C2)CCCCC1 (stereo not shown) [Example 74, 5-((1-(1-methylcyclohexyl)-1H-tetrazol-5-yl)(thiophen-2-yl)methyl)-4,5,6,7-tetrahydrothieno[3,2-c]pyridine]
39 | – | – | – | 2.1 µM | COc1ccsc1C(c1nnnn1C1(C)CCCCC1)N1CCc2sccc2C1 (stereo not shown) [Example 75, 5-((3-methoxythiophen-2-yl)(1-(1-methylcyclohexyl)-1H-tetrazol-5-yl)methyl)-4,5,6,7-tetrahydrothieno[3,2-c]pyridine]
40 | – | – | – | 7.2 µM | COc1ccccc1C(c1nnnn1C1(C)CCCCC1)N1CCc2sccc2C1 (stereo not shown) [Example 76, 5-((2-methoxyphenyl)(1-(1-methylcyclohexyl)-1H-tetrazol-5-yl)methyl)-4,5,6,7-tetrahydrothieno[3,2-c]pyridine]
41 | – | – | – | 26.5 µM | COc1c(F)cccc1C(c1nnnn1C(C)(C)C)N1CCc2ccccc2C1 (stereo not shown) [Example 80, 2-((1-(tert-butyl)-1H-tetrazol-5-yl)(3-fluoro-2-methoxyphenyl)methyl)-1,2,3,4-tetrahydroisoquinoline]
42 | – | – | – | 6.2 µM | COc1ccccc1C(c1nnnn1C(C)(C)C)N1CCC2CCCCC2C1 (stereo not shown) [Example 82, 2-((1-(tert-butyl)-1H-tetrazol-5-yl)(2-methoxyphenyl)methyl)deca-hydroisoquinoline]
43 | – | – | – | 25.0 µM | CC1(n2nnnc2C(c2cccc(F)c2O)N2CCc3ccccc3C2)CCCCC1 (stereo not shown) [Example 83]
